# According to PubChem BioAssay (NCI):
#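 96-well plates; 48 h exposure; 5 concentrations. Endpoints by linear interpolation between flanking doses. Not reached: highest tested concentration assigned. GI50 is the concentration that inhibits growth by half. TGI marks complete inhibition of growth.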
# Legend:
# Test in all cases: DTP human tumour cell line panel, 48 h
# M19-MEL melanoma = test system: M19-MEL melanoma
# LXFL 529 NSCLC = test system: LXFL 529 NSCLC
# HOP-18 NSCLC = test system: HOP-18 NSCLC
# SNB-19 CNS = test system: SNB-19 CNS
# HOP-62 NSCLC = test system: HOP-62 NSCLC
# DMS 273 small cell lung = test system: DMS 273 small cell lung
# HT29 colon = test system: HT29 colon
# SF-539 CNS = test system: SF-539 CNS
# HCC-2998 colon = test system: HCC-2998 colon
# OVCAR-8 ovarian = test system: OVCAR-8 ovarian
# UACC-62 melanoma = test system: UACC-62 melanoma
# HL-60(TB) leukemia = test system: HL-60(TB) leukemia
# NCI-H23 lung = test system: NCI-H23 lung
# SF-268 CNS = test system: SF-268 CNS
# K-562 leukemia = test system: K-562 leukemia
# TK-10 renal = test system: TK-10 renal
# OVCAR-4 ovarian = test system: OVCAR-4 ovarian
# HCT-116 colon = test system: HCT-116 colon
# A498 renal = test system: A498 renal
# SK-OV-3 ovarian = test system: SK-OV-3 ovarian
# A549 NSCLC = test system: A549 NSCLC
# MALME-3M melanoma = test system: MALME-3M melanoma
# EKVX NSCLC = test system: EKVX NSCLC
# XF 498 CNS = test system: XF 498 CNS
# SF-295 CNS = test system: SF-295 CNS
# SN12C renal = test system: SN12C renal
# SK-MEL-28 melanoma = test system: SK-MEL-28 melanoma
# KM12 colon = test system: KM12 colon
# SW-620 colon = test system: SW-620 colon
# 786-0 renal = test system: 786-0 renal
# NCI-H460 lung = test system: NCI-H460 lung
# IGROV1 ovarian = test system: IGROV1 ovarian
# RXF 393 renal = test system: RXF 393 renal
# UO-31 renal = test system: UO-31 renal
# SR leukemia = test system: SR leukemia
# COLO 205 colon = test system: COLO 205 colon
# CCRF-CEM leukemia = test system: CCRF-CEM leukemia
# RPMI-8226 leukemia = test system: RPMI-8226 leukemia
# SNB-75 CNS = test system: SNB-75 CNS
# U251 CNS = test system: U251 CNS
# HOP-92 NSCLC = test system: HOP-92 NSCLC
# SK-MEL-2 melanoma = test system: SK-MEL-2 melanoma
# ACHN renal = test system: ACHN renal
# DLD-1 colon = test system: DLD-1 colon
# MOLT-4 leukemia = test system: MOLT-4 leukemia
# SK-MEL-5 melanoma = test system: SK-MEL-5 melanoma
# SNB-78 CNS = test system: SNB-78 CNS
# KM20L2 colon = test system: KM20L2 colon
# LOX IMVI melanoma = test system: LOX IMVI melanoma
# OVCAR-5 ovarian = test system: OVCAR-5 ovarian
# HCT-15 colon = test system: HCT-15 colon
# OVCAR-3 ovarian = test system: OVCAR-3 ovarian
# M14 melanoma = test system: M14 melanoma
# UACC-257 melanoma = test system: UACC-257 melanoma
# NCI-H226 lung = test system: NCI-H226 lung
# DMS 114 small cell lung = test system: DMS 114 small cell lung
structure (smiles),measurement,setting,value
COC(=O)C(C(=O)OC)C1CCCC(=O)C1 (stereo not given),TGI,M19-MEL melanoma,> 100 µM
same,TGI,LXFL 529 NSCLC,> 100 µM
same,TGI,HOP-18 NSCLC,> 100 µM
same,TGI,SNB-19 CNS,> 100 µM
same,TGI,HOP-62 NSCLC,> 100 µM
same,TGI,DMS 273 small cell lung,> 100 µM
same,TGI,HT29 colon,> 100 µM
same,TGI,SF-539 CNS,> 100 µM
same,TGI,HCC-2998 colon,> 100 µM
same,TGI,OVCAR-8 ovarian,> 100 µM
same,TGI,UACC-62 melanoma,> 100 µM
same,TGI,HL-60(TB) leukemia,> 100 µM
same,TGI,NCI-H23 lung,> 100 µM
same,TGI,SF-268 CNS,> 100 µM
same,TGI,K-562 leukemia,> 100 µM
same,TGI,TK-10 renal,> 100 µM
same,TGI,OVCAR-4 ovarian,> 100 µM
same,TGI,HCT-116 colon,> 100 µM
same,TGI,A498 renal,> 100 µM
same,TGI,SK-OV-3 ovarian,> 100 µM
same,TGI,A549 NSCLC,> 100 µM
same,TGI,MALME-3M melanoma,> 100 µM
same,TGI,EKVX NSCLC,> 100 µM
same,TGI,XF 498 CNS,> 100 µM
same,TGI,SF-295 CNS,> 100 µM
same,TGI,SN12C renal,> 100 µM
same,TGI,SK-MEL-28 melanoma,> 100 µM
same,TGI,KM12 colon,> 100 µM
same,TGI,SW-620 colon,> 100 µM
same,TGI,786-0 renal,> 100 µM
same,TGI,NCI-H460 lung,> 100 µM
same,TGI,IGROV1 ovarian,> 100 µM
same,TGI,RXF 393 renal,> 100 µM
same,TGI,UO-31 renal,> 100 µM
same,TGI,SR leukemia,> 100 µM
same,TGI,COLO 205 colon,> 100 µM
same,TGI,CCRF-CEM leukemia,> 100 µM
same,TGI,RPMI-8226 leukemia,> 100 µM
same,TGI,SNB-75 CNS,> 100 µM
same,TGI,U251 CNS,> 100 µM
same,TGI,HOP-92 NSCLC,> 100 µM
same,TGI,SK-MEL-2 melanoma,0.503 µM
same,TGI,ACHN renal,> 100 µM
same,TGI,DLD-1 colon,> 100 µM
same,TGI,MOLT-4 leukemia,> 100 µM
same,TGI,SK-MEL-5 melanoma,> 100 µM
same,TGI,SNB-78 CNS,> 100 µM
same,TGI,KM20L2 colon,> 100 µM
same,TGI,LOX IMVI melanoma,> 100 µM
same,TGI,OVCAR-5 ovarian,> 100 µM
same,TGI,HCT-15 colon,> 100 µM
same,TGI,OVCAR-3 ovarian,> 100 µM
same,TGI,M14 melanoma,> 100 µM
same,TGI,UACC-257 melanoma,> 100 µM
COc1ccccc1-c1cc(=O)c2cc3c(cc2[nH]1)OCO3,TGI,M19-MEL melanoma,> 100 µM
same,TGI,LXFL 529 NSCLC,> 100 µM
same,TGI,SNB-19 CNS,> 100 µM
same,TGI,HOP-62 NSCLC,> 100 µM
same,TGI,DMS 273 small cell lung,> 100 µM
same,TGI,HT29 colon,> 100 µM
same,TGI,SF-539 CNS,70.6 µM
same,TGI,HCC-2998 colon,> 100 µM
same,TGI,OVCAR-8 ovarian,> 100 µM
same,TGI,UACC-62 melanoma,> 100 µM
same,TGI,HL-60(TB) leukemia,> 100 µM
same,TGI,NCI-H23 lung,> 100 µM
same,GI50,SF-268 CNS,64.5 µM
same,TGI,SF-268 CNS,> 100 µM
same,TGI,K-562 leukemia,> 100 µM
same,TGI,TK-10 renal,> 100 µM
same,TGI,OVCAR-4 ovarian,92 µM
same,TGI,HCT-116 colon,> 100 µM
same,TGI,A498 renal,62.4 µM
same,TGI,A549 NSCLC,> 100 µM
same,TGI,MALME-3M melanoma,> 100 µM
same,TGI,EKVX NSCLC,> 100 µM
same,TGI,XF 498 CNS,75.5 µM
same,GI50,SF-295 CNS,21.1 µM
same,TGI,SF-295 CNS,62.6 µM
same,TGI,SN12C renal,> 100 µM
same,TGI,SK-MEL-28 melanoma,> 100 µM
same,TGI,SW-620 colon,> 100 µM
same,TGI,786-0 renal,> 100 µM
same,TGI,NCI-H460 lung,> 100 µM
same,TGI,IGROV1 ovarian,> 100 µM
same,GI50,RXF 393 renal,15.1 µM
same,TGI,RXF 393 renal,56.2 µM
same,TGI,UO-31 renal,> 100 µM
same,GI50,NCI-H226 lung,22.8 µM
same,TGI,NCI-H226 lung,88.8 µM
same,TGI,SR leukemia,> 100 µM
same,TGI,COLO 205 colon,51.5 µM
same,TGI,CCRF-CEM leukemia,> 100 µM
same,TGI,RPMI-8226 leukemia,> 100 µM
same,TGI,SNB-75 CNS,> 100 µM
same,TGI,U251 CNS,> 100 µM
same,TGI,SK-MEL-2 melanoma,> 100 µM
same,TGI,ACHN renal,> 100 µM
same,TGI,DLD-1 colon,> 100 µM
same,TGI,MOLT-4 leukemia,> 100 µM
same,TGI,SK-MEL-5 melanoma,> 100 µM
same,GI50,KM20L2 colon,18.7 µM
same,TGI,KM20L2 colon,37.5 µM
same,TGI,LOX IMVI melanoma,> 100 µM
same,TGI,HCT-15 colon,> 100 µM
same,GI50,DMS 114 small cell lung,25 µM
same,TGI,DMS 114 small cell lung,> 100 µM
same,GI50,OVCAR-3 ovarian,39.9 µM
same,TGI,OVCAR-3 ovarian,> 100 µM
same,TGI,UACC-257 melanoma,> 100 µM
